pIC50: −log10 of the molar value. Where two headings read alike, the source gives them in different places.
Columns and labels:
AKT1 WT = biological target: T1, AKT1 WT (Homo sapiens, UniProt P31749); assay: Live cell AKT1 WT target engagement by NanoBRET competitive probe displacement in HEK293 cells; format: binding; conditions: 2 h at 37° C., read-out: AKT1 WT IC50
T1 construct: expressed in transfected cells; host or cells: HEK293
Protocol: (§1) Determining live cell AKT1 E17K, AKT1 WT, and AKT2 target engagement by NanoBRET competitive probe displacement. […] Briefly, HEK293 cells were transfected with plasmids encoding kinase-NanoLuciferase fusion proteins overnight. Cells were then treated with serial dilutions of compound and an ˜EC50 concentration of fluorescently-tagged ATP-competitive tracer (Promega). After incubation for 2 h at 37° C., luciferase substrate and extracellular luciferase inhibitor were added to all wells, and luminescent intensity at 460 nm and 600 nm were measured on a multimode plate-reader. The ratio of E600/E460 was calculated to give the tracer engagement signal (BRET). IC50 values were calculated by fitting BRET values to a log(inhibitor) vs. response Hill equation.

AKT2 = biological target: T2, AKT2 (Homo sapiens, UniProt P31751); assay: Live cell AKT2 target engagement by NanoBRET competitive probe displacement in HEK293 cells; format: binding; conditions: 2 h at 37° C., read-out: AKT2 IC50
T2 construct: expressed in transfected cells; host or cells: HEK293
Protocol: as §1

[1] = NanoBRET live cell target engagement, HEK293 cells
[2] = NanoBRET competitive probe displacement, live HEK293 cells

T1 sequence (P31749 whole entry): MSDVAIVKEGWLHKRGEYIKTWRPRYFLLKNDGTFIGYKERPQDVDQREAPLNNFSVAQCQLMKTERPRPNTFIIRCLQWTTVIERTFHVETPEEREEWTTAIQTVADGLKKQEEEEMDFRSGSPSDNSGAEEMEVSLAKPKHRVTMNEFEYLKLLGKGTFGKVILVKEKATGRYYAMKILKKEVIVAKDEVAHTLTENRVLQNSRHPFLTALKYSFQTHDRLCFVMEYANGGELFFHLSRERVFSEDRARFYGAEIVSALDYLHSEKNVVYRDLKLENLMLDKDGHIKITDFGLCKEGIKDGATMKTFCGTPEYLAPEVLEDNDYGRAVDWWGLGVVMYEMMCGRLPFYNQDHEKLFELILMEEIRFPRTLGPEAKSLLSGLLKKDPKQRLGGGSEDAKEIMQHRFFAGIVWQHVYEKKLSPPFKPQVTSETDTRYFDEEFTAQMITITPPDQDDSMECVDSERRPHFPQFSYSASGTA
T2 sequence (P31751 whole entry): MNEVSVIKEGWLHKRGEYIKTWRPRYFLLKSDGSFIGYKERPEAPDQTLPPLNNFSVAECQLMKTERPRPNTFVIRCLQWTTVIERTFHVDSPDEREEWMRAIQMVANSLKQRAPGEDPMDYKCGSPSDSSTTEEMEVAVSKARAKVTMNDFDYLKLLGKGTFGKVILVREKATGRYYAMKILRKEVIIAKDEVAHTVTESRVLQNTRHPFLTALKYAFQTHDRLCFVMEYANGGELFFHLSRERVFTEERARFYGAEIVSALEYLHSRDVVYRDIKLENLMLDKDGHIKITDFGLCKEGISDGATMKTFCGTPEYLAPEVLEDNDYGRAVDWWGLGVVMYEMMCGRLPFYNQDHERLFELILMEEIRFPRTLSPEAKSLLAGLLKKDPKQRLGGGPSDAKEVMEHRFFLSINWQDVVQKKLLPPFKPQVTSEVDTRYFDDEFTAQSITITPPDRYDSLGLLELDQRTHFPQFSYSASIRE

COc1cc(-n2cccn2)nc2c1nc(-c1cccnc1N)n2-c1ccc2c(c1)CC[C@@H]2NC(=O)c1ccc(C(F)F)nc1 [Compound 122, (S)—N-(5-(2-(2-aminopyridin-3-yl)-7-methoxy-5-(1H-pyrazol-1-yl)-3H-imidazo[4,5-b]pyridin-3-yl)-2,3-dihydro-1H-inden-1-yl)-6-(difluoromethyl)nicotinamide]
pIC50 (AKT1 WT; [1]): 7.97 | pIC50 (AKT2; [1]): 7.46

CSc1ccn(-c2ccc3nc(-c4cccnc4N)n(-c4ccc5c(c4)CC[C@@H]5NC4CCN(C(=O)C5CC5)CC4)c3n2)n1 [Compound 518]
pIC50 (AKT1 WT; [2]): 7.49 | pIC50 (AKT2; [2]): 5.89

Cc1nccnc1C(=O)N[C@H]1CCc2cc(-n3c(-c4cccnc4N)nc4ccc(-c5cccc(N6CCN(C)CC6)c5)nc43)ccc21 [Compound 269]
pIC50 (AKT1 WT; [1]): 8.49 | pIC50 (AKT2; [1]): 8.03

Nc1ncccc1-c1nc2ccc(-n3cccn3)nc2n1-c1ccc2c(c1)CC[C@@H]2NC(=O)[C@H]1CCO1 [Compound 372]
pIC50 (AKT1 WT; [1]): < 6.00 | pIC50 (AKT2; [1]): < 5.00

Cc1nnn([C@H]2CCc3cc(-n4c(-c5cccnc5N)nc5ccc(-n6cccn6)nc54)ccc32)c1C [Compound 249, (S)-3-(3-(1-(4,5-dimethyl-1H-1,2,3-triazol-1-yl)-2,3-dihydro-1H-inden-5-yl)-5-(1H-pyrazol-1-yl)-3H-imidazo[4,5-b]pyridin-2-yl)pyridin-2-amine]
pIC50 (AKT1 WT; [1]): 7.66 | pIC50 (AKT2; [1]): 6.43

Cc1cc(C(=O)N[C@H]2CCc3cc(-n4c(-c5cccnc5N)nc5ccc(-n6cccn6)nc54)ccc32)nn1C(F)F [Compound 166]
pIC50 (AKT1 WT; [1]): 7.52 | pIC50 (AKT2; [1]): 6.16

Cc1ncccc1C(=O)N[C@H]1CCc2cc(-n3c(-c4cccnc4N)nc4ccc(C5CC5)nc43)ccc21 [Compound 129]
pIC50 (AKT1 WT; [1]): 6.95 | pIC50 (AKT2; [1]): < 5.00

Nc1ncccc1-c1nc2ccc(-n3cccn3)nc2n1-c1ccc2c(c1)CC[C@@H]2NC1CCc2cc(O)ccc21 (single isomer, unassigned) [Compound 499]
pIC50 (AKT1 WT; [2]): 7.34 | pIC50 (AKT2; [2]): 6.05

Nc1ncccc1-c1nc2ccc(-n3cccn3)nc2n1-c1ccc2c(c1)CC[C@@H]2NC1CCN(C(=O)[C@H]2CCO2)CC1 [Compound 425]
pIC50 (AKT1 WT; [2]): 6.96 | pIC50 (AKT2; [2]): 5.51

CS(=O)(=O)Nc1ccc(C(=O)N[C@H]2CCc3cc(-n4c(-c5cccnc5N)nc5ccc(-n6cccn6)nc54)ccc32)cn1 [Compound 231]
pIC50 (AKT1 WT; [1]): 6.30 | pIC50 (AKT2; [1]): 5.41

Nc1ncccc1-c1nc2ccc(-n3cccn3)nc2n1-c1ccc2c(c1)CC[C@@H]2NC1CCc2cnccc2C1 (single isomer, unassigned) [Compound 463]
pIC50 (AKT1 WT; [2]): 7.57 | pIC50 (AKT2; [2]): 5.97

Nc1ncccc1-c1nc2ccc(-n3cccn3)nc2n1-c1ccc2c(c1)CC[C@@H]2n1cnnc1 [Compound 248, (S)-3-(3-(1-(4H-1,2,4-triazol-4-yl)-2,3-dihydro-1H-inden-5-yl)-5-(1H-pyrazol-1-yl)-3H-imidazo[4,5-b]pyridin-2-yl)pyridin-2-amine]
pIC50 (AKT1 WT; [1]): 7.69 | pIC50 (AKT2; [1]): 6.97

Cc1ncc(F)cc1C(=O)N[C@H]1CCc2cc(-n3c(-c4cccnc4N)nc4ccc(-n5cccn5)nc43)ccc21 [Compound 159]
pIC50 (AKT1 WT; [1]): 8.33 | pIC50 (AKT2; [1]): 7.66

Nc1ncccc1-c1nc2ccc(-n3ncc(OC(F)F)n3)nc2n1-c1ccc2c(c1)CC[C@@H]2NC(=O)c1cnc(C(F)F)s1 [Compound 595]
pIC50 (AKT1 WT; [2]): 7.82 | pIC50 (AKT2; [2]): 6.28

Cc1ccc(C(=O)N[C@H]2CCc3cc(-n4c(-c5cccnc5N)nc5ccc(C#Cc6ncco6)nc54)ccc32)cn1 [Compound 341]
pIC50 (AKT1 WT; [1]): 6.41 | pIC50 (AKT2; [1]): 5.55

CNS(=O)(=O)c1cccc(C(=O)N[C@H]2CCc3cc(-n4c(-c5cccnc5N)nc5ccc(-n6cccn6)nc54)ccc32)c1 [Compound 239]
pIC50 (AKT1 WT; [1]): 6.93 | pIC50 (AKT2; [1]): 5.96

COC1CCN(c2ccn(-c3ccc4nc(-c5cccnc5N)n(-c5ccc6c(c5)CC(F)[C@@H]6NC5CCN(C(=O)C6CC6)CC5)c4n3)n2)CC1 (some centres unmarked) [Compound 546]
pIC50 (AKT1 WT; [2]): 8.01 | pIC50 (AKT2; [2]): 6.66

Nc1ncccc1-c1nc2ccc(-n3cccn3)nc2n1-c1ccc2c(c1)CC[C@@H]2NC(=O)c1ccn(C2CC2)n1 [Compound 215]
pIC50 (AKT1 WT; [1]): 7.67 | pIC50 (AKT2; [1]): 6.42

Nc1ncccc1-c1nc2ccc(-n3cccn3)nc2n1-c1ccc2c(c1)CC[C@@H]2NC1CCN(c2cccnc2)C1 (some centres unmarked) [Compound 471]
pIC50 (AKT1 WT; [2]): 7.41 | pIC50 (AKT2; [2]): 5.98

Nc1ncccc1-c1nc2ccc(-n3cccn3)nc2n1-c1ccc2c(c1)CC[C@@H]2NC(=O)c1ccccc1F [Compound 333]
pIC50 (AKT1 WT; [1]): 8.21 | pIC50 (AKT2; [1]): 7.23

Nc1ncccc1-c1nc2ccc(-n3cccn3)nc2n1-c1ccc2c(c1)CC[C@@H]2NC(=O)c1cncc(OC(F)(F)F)c1 [Compound 138]
pIC50 (AKT1 WT; [1]): 7.87 | pIC50 (AKT2; [1]): 6.55

COCCN(C)[C@H]1CCc2cc(-n3c(-c4cccnc4N)nc4ccc(-n5cccn5)nc43)ccc21 [Compound 457]
pIC50 (AKT1 WT; [2]): 6.63 | pIC50 (AKT2; [2]): 5.17

Nc1ncccc1-c1nc2ccc(-n3cccn3)nc2n1-c1ccc2c(c1)CC[C@@H]2NC(=O)c1cnc2c(c1)COC2 [Compound 106]
pIC50 (AKT1 WT; [1]): 8.19 | pIC50 (AKT2; [1]): 7.44

Cn1nccc1Cc1nncn1[C@H]1CCc2cc(-n3c(-c4cccnc4N)nc4ccc(-n5cccn5)nc43)ccc21 [Compound 222]
pIC50 (AKT1 WT; [1]): 6.84 | pIC50 (AKT2; [1]): 5.85

Cc1nncn1[C@H]1CCc2cc(-n3c(-c4cccnc4N)nc4ccc(-n5cccn5)nc43)ccc21 [Compound 217, (S)-3-(3-(1-(3-methyl-4H-1,2,4-triazol-4-yl)-2,3-dihydro-1H-inden-5-yl)-5-(1H-pyrazol-1-yl)-3H-imidazo[4,5-b]pyridin-2-yl)pyridin-2-amine]
pIC50 (AKT1 WT; [1]): 7.41 | pIC50 (AKT2; [1]): 6.48

Nc1ncccc1-c1nc2ccc(-n3cccn3)nc2n1-c1ccc2c(c1)CC[C@@H]2NC(=O)c1ccc2[nH]nnc2c1 [Compound 190]
pIC50 (AKT1 WT; [1]): 7.59 | pIC50 (AKT2; [1]): 6.91

Nc1ncccc1-c1nc2ccc(-n3cccn3)nc2n1-c1ccc2c(c1)CC[C@@H]2NC(=O)c1cccnc1C(F)(F)F [Compound 110]
pIC50 (AKT1 WT; [1]): 7.34 | pIC50 (AKT2; [1]): 6.02

CN(C)Cc1cc(C(=O)N[C@H]2CCc3cc(-n4c(-c5cccnc5N)nc5ccc(-n6cccn6)nc54)ccc32)ccn1 [Compound 205]
pIC50 (AKT1 WT; [1]): 6.77 | pIC50 (AKT2; [1]): 5.63

Nc1ncccc1-c1nc2ccc(-n3cccn3)nc2n1-c1ccc2c(c1)CC[C@@H]2N1CCC1 [Compound 87, (S)-3-(3-(1-(azetidin-1-yl)-2,3-dihydro-1H-inden-5-yl)-5-(1H-pyrazol-1-yl)-3H-imidazo[4,5-b]pyridin-2-yl)pyridin-2-amine]
pIC50 (AKT1 WT; [1]): 6.83 | pIC50 (AKT2; [1]): 5.72

Nc1ncccc1-c1nc2ccc(-n3cccn3)nc2n1-c1ccc2c(c1)CC[C@@H]2NC(=O)c1cccnc1OC(F)(F)F [Compound 78]
pIC50 (AKT1 WT; [1]): 6.97 | pIC50 (AKT2; [1]): 5.72

Cc1ncccc1C(=O)N[C@H]1CCc2cc(-n3c(-c4cccnc4N)nc4ccc(-n5nccn5)nc43)ccc21 [Compound 93]
pIC50 (AKT1 WT; [1]): 7.41 | pIC50 (AKT2; [1]): 5.75

Nc1ncccc1-c1nc2ccc(-n3cccn3)nc2n1-c1ccc2c(c1)CC[C@@H]2NC(=O)c1cnc(O)c(F)c1 [Compound 296]
pIC50 (AKT1 WT; [1]): 7.25 | pIC50 (AKT2; [1]): 6.18

Cc1ncccc1C(=O)N[C@H]1CCc2cc(-n3c(-c4cccnc4N)nc4ccc(N5CCOCC5)nc43)ccc21 [Compound 135]
pIC50 (AKT1 WT; [1]): 7.08 | pIC50 (AKT2; [1]): 5.95

Cc1ncncc1C(=O)N[C@H]1CCc2cc(-n3c(-c4cccnc4N)nc4ccc(-n5cccn5)nc43)ccc21 [Compound 117]
pIC50 (AKT1 WT; [1]): 8.27 | pIC50 (AKT2; [1]): 6.99

Reference: US12624034B2, “Non-covalent modifiers of AKT1 and uses thereof” (Terremoto Biosciences, Inc., priority 2023, dated 2026)
